Assays:
[1] = Test-tube comparison of SFA (F6H8) and common remedies on about 100 mg human ear wax (Example 2); set-up: key to Effects on Ear Wax (Cerumen) Samples: NC, No Change; BP, Bubbles Produced; SG, Softening; FD, Fully Dispersed; conditions: for Effects on Ear Wax (Cerumen) Samples: Human; for Visible changes to ear wax samples (in words): human, 30 seconds with gentle agitation
Protocol: (§1) Approximately 100 mg of human ear wax was weighed into each of four small test tubes and numbered 1-4. In a second series, approximately 100 mg of animal cerumen from dogs was placed into four different test tubes and numbered 5-8. About 1 ml of the following material was then added to the respective dishes as follows: (1) to tubes #1 and 5, F6H8; (2) to tubes #2 and 6, hydrogen peroxide, 3%; (3) to tubes #3 and 7, carbamide peroxide, 6.5% (Murine Earwax Removal Drops); and (4) to tubes #4 and 8, sodium bicarbonate, 5% (prepared by dissolved 5 grams of sodium bicarbonate in 100 ml of distilled water. Results of these studies are presented in Table 1, below.

[2] = Test-tube comparison of SFA (F6H8) and common remedies on about 100 mg dog cerumen (Example 2); set-up: key to Effects on Ear Wax (Cerumen) Samples: NC, No Change; BP, Bubbles Produced; SG, Softening; FD, Fully Dispersed; conditions: for Effects on Ear Wax (Cerumen) Samples: Dog; for Visible changes to ear wax samples (in words): dog, 30 seconds with gentle agitation
Protocol: as §1

[3] = Cotton bud laden with human ear wax swirled through about 1 ml F6H8 (initial studies, Example 1); conditions: human cerumen on cotton bud swirled or shaken in F6H8; hair particles etc. not dissolved
From the text: (§2) In these studies, which are reflected below in Table 1, samples of ear wax were collected on cotton buds from animals or humans. A portion of each sample was placed into a small tube containing an SFA (F6H8) and gently shaken.
(§3) The invention is based in substantial part upon initial studies that provided surprising results. A small quantity of F6H8 semi-fluorinated alkane was placed into each of 5 test tubes. Samples of cerumen from animal or human ears were collected on cotton buds. Sufficient ear wax was collected that quantities of the material were visible on cotton buds used to harvest the materials. Separate cotton buds were used to collect cerumen from four dogs and two humans. In a step-wise manner, one cotton bud, laden with ear wax, was gently swirled through a single test tube containing an aliquot of F6H8 SFA. The study was repeated three times for cotton buds with ear wax from dogs and a second series of two tests, as previously described, were carried-out with cotton buds laden with human cerumen. […] Importantly, in the study the cerumen was dissolved by the SFA but the other matter (hair particles, etc.) were not dissolved. […] Such products include MURINE® Ear Drops, DEBROX® Earwax Removal, Flents Earwax Remover, and CERUMENEX® and also includes patents for compositions containing glycerin, glycols, peroxide plus urea and cyclodextrin containing compositions. […]

[4] = Cotton bud laden with dog ear wax swirled through about 1 ml F6H8 (initial studies, Example 1); conditions: dog cerumen on cotton bud swirled or shaken in F6H8; hair particles etc. not dissolved
From the text: as §2, §3

[5] = tested on: accumulation of ear wax; assay: Prophylaxis to prevent or retard accumulation of ear wax, one human (Example 4); type: in vivo
Protocol: (§4) The effectiveness of F6H8 as a prophylaxis to prevent or retard accumulation of ear wax was evaluated in one human and one dog. The ear canal of the person and the canine were cleaned thoroughly prior to the evaluation of prophylaxis with SFA. Then, on a regular basis (five of seven days on average), 20-25 ul of F6H8 were applied to a cotton bud and the right ear only of each subjects was gently swabbed for about 15 seconds. In each instance, the contralateral ear served as a control in this study. […] Visual observation was confirmed by using a clean cotton bud to swab each ear of both subjects for 10-15 seconds.

[6] = tested on: accumulation of ear wax; assay: Prophylaxis to prevent or retard accumulation of ear wax, one dog (Example 4); type: in vivo
Protocol: as §4

[7] = 30 Seconds, about 1 ml on approx. 100 mg ear wax, gentle agitation
[8] = 30 Seconds, about 1 ml on approx. 100 mg cerumen, gentle agitation
[9] = 20-25 ul on cotton bud, about five of seven days, end of three month trial
[10] = swab 10-15 seconds at end of three month trial

OO [Hydrogen Peroxide, 3%, hydrogen peroxide]
Effects on Ear Wax (Cerumen) Samples ([1]; 5 Minutes): BP
Effects on Ear Wax (Cerumen) Samples ([1]; 15 Minutes): SG and BP,
Effects on Ear Wax (Cerumen) Samples [1, 7]: NC
Visible changes to ear wax samples (in words) [1]: failed to produce visible changes
Effects on Ear Wax (Cerumen) Samples ([2]; 5 Minutes): BP
Effects on Ear Wax (Cerumen) Samples ([2]; 15 Minutes): SG and BP,
Effects on Ear Wax (Cerumen) Samples [2, 8]: NC
Visible changes to ear wax samples (in words) [2]: failed to produce visible changes

CCCCCCCCC(F)(F)C(F)(F)C(F)(F)C(F)(F)C(F)(F)C(F)(F)F [SFA (F6H8)]
Effects on Ear Wax (Cerumen) Samples ([1]; 5 Minutes): FD
Effects on Ear Wax (Cerumen) Samples ([1]; 15 Minutes): FD
Effects on Ear Wax (Cerumen) Samples [1, 7]: FD
Effects on Ear Wax (Cerumen) Samples ([2]; 5 Minutes): FD
Effects on Ear Wax (Cerumen) Samples ([2]; 15 Minutes): FD
Effects on Ear Wax (Cerumen) Samples [2, 8]: FD
Dissolution of cerumen from the ear wax sample (in words) [3]: dissolved completely
Dissolution of cerumen from the ear wax sample (in words) [4]: dissolved completely
Visual observation of treated right ear vs untreated contralateral ear [5, 9]: visibly cleaner and contained less ear wax and associated hair and other debris
Ear wax collected by clean cotton bud from treated right ear vs untreated left ear [5, 10]: collected less ear wax
Visual observation of treated right ear vs untreated contralateral ear [6, 9]: visibly cleaner and contained less ear wax and associated hair and other debris
Ear wax collected by clean cotton bud from treated right ear vs untreated left ear [6, 10]: collected less ear wax

O=C([O-])O.[Na+] [Sodium Bicarbinate, 5%, sodium bicarbonate]
Effects on Ear Wax (Cerumen) Samples ([1]; 5 Minutes): NC
Effects on Ear Wax (Cerumen) Samples ([1]; 15 Minutes): NC
Effects on Ear Wax (Cerumen) Samples [1, 7]: NC
Visible changes to ear wax samples (in words) [1]: failed to produce visible changes
Effects on Ear Wax (Cerumen) Samples ([2]; 5 Minutes): NC
Effects on Ear Wax (Cerumen) Samples ([2]; 15 Minutes): NC
Effects on Ear Wax (Cerumen) Samples [2, 8]: NC
Visible changes to ear wax samples (in words) [2]: failed to produce visible changes
